Test results: ChEMBL document CHEMBL4229504, “Incorporation of histone deacetylase inhibitory activity into the core of tamoxifen - A new hybrid design paradigm” (Bioorg Med Chem, 2018)
The source made the active and inactive calls. No cut-off for these calls is given here.

How the values were obtained:
Estrogen receptor [1] = target: T1, Estrogen receptor (Homo sapiens, UniProt P03372); test: Antagonist activity at recombinant human ERalpha expressed in HEK293 cells assessed as inhibition of estradiol-induced YFP-fused SRC1 coactivator recruitment measured after 1 hr in presence of Coelenterazine H by BRET assay; format: cell-based
T1 sequence (P03372 whole entry): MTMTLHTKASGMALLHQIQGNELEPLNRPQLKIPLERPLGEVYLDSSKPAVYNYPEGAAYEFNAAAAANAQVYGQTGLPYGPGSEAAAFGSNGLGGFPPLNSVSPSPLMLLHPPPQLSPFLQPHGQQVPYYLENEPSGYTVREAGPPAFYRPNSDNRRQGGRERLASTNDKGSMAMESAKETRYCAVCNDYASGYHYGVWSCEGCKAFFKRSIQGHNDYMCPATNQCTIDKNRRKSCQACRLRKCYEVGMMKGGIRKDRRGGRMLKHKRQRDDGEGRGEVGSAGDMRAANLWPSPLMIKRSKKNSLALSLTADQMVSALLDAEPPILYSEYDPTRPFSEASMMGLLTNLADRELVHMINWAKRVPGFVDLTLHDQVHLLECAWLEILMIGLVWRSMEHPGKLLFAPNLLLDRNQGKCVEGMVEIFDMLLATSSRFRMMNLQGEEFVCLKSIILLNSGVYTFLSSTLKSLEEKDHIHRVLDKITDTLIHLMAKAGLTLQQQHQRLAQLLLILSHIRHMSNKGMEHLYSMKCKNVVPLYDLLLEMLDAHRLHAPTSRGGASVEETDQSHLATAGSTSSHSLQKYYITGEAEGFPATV

Estrogen receptor [2] = target: T1, Estrogen receptor; test: Partial agonist activity at recombinant human ERalpha expressed in HEK293 cells assessed as YFP-fused SRC1 coactivator recruitment measured after 1 hr in presence of Coelenterazine H by BRET assay; format: cell-based; conditions: hek293, 1 h
[3] = target: T2, Protein deacetylase HDAC6 (Homo sapiens, UniProt Q9UBN7); test: Inhibition of full length recombinant human N-terminal GST-tagged HDAC6 expressed in Sf9 cells using Ac-Leu-Gly-Lys(Ac)-AMC as substrate measured after 30 mins by fluorescence assay
T2 sequence (Q9UBN7 whole entry): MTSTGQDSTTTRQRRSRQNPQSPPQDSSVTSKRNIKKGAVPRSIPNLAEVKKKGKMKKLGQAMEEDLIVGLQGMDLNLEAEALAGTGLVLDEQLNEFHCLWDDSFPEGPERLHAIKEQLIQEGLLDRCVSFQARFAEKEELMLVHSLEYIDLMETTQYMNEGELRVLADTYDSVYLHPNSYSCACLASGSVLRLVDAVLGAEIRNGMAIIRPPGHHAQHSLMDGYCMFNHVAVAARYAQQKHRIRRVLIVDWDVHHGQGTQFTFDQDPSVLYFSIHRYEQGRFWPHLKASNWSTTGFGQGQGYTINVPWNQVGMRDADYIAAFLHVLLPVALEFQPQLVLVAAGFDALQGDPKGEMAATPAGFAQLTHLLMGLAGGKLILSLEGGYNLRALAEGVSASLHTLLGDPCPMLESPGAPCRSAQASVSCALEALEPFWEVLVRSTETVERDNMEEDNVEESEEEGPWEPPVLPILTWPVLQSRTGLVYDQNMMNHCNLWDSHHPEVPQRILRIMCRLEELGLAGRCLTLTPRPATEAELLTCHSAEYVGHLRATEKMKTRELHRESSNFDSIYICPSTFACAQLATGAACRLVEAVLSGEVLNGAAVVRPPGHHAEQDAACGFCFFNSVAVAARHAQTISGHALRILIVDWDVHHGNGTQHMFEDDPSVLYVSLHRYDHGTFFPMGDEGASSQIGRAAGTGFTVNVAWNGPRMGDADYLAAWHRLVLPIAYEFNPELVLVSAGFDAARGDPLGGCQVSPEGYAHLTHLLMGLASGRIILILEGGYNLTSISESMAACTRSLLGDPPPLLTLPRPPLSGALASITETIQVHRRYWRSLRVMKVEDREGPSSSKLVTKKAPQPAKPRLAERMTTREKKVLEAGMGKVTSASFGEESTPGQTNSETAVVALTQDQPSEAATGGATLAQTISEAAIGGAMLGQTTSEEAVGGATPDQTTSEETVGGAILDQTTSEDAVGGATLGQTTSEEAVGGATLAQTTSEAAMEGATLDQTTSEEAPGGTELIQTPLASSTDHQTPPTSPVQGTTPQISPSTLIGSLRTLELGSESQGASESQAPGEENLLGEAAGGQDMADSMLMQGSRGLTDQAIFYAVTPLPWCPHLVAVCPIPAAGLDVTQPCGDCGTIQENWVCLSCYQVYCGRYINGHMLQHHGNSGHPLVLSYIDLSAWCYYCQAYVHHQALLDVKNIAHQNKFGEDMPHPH

[4] = target: Histone deacetylase 3/Nuclear receptor corepressor 2 (HDAC3/NCoR2) (Homo sapiens, UniProt O15379); test: Inhibition of human full length C-terminal His-tagged HDAC3/N-terminal GST-tagged human NCOR2 (395 to 489 residues) expressed in baculovirus expression system using Ac-Leu-Gly-Lys(Ac)-AMC as substrate measured after 30 mins by fluorescence assay
Histone deacetylase 3/Nuclear receptor corepressor 2 (HDAC3/NCoR2), sequence (O15379 whole entry, the tested form may be a part): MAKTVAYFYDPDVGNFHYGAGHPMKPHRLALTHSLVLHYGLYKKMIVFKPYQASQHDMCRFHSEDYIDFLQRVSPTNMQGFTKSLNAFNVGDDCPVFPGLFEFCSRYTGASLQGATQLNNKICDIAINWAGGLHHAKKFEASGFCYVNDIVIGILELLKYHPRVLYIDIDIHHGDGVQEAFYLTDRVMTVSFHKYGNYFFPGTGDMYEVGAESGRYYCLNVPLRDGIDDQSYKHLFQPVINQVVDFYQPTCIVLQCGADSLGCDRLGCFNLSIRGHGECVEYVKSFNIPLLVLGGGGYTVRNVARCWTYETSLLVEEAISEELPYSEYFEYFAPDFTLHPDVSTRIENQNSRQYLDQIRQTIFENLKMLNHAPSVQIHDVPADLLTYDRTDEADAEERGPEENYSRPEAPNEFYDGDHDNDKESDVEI
Histone deacetylase 3/Nuclear receptor corepressor 2 (HDAC3/NCoR2), sequence (Q9Y618 whole entry, further chain, the tested form may be a part): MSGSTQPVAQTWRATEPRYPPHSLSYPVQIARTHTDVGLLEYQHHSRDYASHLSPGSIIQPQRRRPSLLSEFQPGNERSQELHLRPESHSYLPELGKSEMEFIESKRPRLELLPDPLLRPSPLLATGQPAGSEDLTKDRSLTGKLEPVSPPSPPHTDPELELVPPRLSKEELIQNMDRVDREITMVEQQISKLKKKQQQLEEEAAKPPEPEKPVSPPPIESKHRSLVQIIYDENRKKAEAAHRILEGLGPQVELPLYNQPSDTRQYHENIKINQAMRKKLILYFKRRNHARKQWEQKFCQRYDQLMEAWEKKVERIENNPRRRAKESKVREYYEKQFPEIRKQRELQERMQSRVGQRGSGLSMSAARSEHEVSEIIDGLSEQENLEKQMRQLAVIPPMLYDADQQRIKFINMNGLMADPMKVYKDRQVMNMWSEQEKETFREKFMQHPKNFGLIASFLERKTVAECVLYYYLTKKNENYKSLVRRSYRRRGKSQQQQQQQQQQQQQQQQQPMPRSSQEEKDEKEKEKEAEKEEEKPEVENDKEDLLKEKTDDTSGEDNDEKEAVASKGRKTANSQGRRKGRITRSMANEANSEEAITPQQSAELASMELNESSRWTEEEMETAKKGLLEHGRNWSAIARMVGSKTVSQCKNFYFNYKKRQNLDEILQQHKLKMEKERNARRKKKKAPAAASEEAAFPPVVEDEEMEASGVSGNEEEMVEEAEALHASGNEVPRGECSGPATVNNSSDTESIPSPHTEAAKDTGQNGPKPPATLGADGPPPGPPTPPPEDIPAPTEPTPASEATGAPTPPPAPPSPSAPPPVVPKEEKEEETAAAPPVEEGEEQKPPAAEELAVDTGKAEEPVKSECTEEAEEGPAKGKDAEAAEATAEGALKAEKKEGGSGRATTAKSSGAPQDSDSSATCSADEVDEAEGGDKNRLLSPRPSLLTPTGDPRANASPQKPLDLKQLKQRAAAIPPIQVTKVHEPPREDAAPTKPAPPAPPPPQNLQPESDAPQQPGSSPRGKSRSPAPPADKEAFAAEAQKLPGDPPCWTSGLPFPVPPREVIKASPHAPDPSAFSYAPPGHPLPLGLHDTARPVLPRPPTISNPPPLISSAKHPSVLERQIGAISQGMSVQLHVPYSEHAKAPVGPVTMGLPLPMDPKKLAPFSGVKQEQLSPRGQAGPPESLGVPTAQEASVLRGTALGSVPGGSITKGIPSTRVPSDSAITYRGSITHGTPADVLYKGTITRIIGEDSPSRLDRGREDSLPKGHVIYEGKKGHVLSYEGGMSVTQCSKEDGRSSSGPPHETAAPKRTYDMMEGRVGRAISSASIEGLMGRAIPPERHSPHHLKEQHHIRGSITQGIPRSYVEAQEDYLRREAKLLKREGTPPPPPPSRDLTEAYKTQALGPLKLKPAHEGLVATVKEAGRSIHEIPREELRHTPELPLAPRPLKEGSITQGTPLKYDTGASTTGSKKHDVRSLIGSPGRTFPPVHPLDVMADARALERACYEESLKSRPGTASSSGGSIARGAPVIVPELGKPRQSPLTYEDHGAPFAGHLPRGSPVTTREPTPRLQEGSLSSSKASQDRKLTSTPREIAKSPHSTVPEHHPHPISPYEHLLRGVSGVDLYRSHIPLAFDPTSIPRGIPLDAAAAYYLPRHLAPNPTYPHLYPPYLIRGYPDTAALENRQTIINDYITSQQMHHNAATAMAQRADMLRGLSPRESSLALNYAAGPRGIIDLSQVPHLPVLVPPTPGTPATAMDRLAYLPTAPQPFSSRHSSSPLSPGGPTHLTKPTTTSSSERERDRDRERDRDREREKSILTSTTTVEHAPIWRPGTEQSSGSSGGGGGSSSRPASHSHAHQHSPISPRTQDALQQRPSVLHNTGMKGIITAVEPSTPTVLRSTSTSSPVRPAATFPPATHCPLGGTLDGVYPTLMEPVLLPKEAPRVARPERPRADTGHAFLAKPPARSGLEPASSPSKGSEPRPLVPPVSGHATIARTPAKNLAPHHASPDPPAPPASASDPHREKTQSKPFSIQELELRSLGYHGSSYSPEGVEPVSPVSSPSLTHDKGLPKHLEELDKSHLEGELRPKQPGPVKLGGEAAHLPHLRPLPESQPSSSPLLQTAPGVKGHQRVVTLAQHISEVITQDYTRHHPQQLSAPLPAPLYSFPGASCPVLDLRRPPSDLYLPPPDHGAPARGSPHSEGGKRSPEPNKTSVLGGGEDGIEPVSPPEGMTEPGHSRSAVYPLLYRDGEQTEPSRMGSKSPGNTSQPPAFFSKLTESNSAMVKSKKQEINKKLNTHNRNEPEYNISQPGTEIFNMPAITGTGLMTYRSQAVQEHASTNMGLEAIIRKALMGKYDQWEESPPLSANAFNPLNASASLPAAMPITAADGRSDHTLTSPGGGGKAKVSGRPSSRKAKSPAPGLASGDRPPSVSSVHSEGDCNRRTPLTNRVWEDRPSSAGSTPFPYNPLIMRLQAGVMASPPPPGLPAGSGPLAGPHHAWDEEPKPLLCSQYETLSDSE

MCF7 [5] = test: Cytotoxicity against ER positive human MCF7 cells treated every 2 days for 4 days measured post last dose by CellTiter-Glo luminescence assay; format: functional, cell-based
MCF7 [6] = test: Cytotoxicity against ER positive human MCF7 cells treated every 2 days for 4 days measured after 7 days by CellTiter-Glo luminescence assay; format: functional, cell-based
MDA-MB-231 [7] = test: Cytotoxicity against ER negative human MDA-MB-231 cells treated every 2 days for 4 days measured post last dose by CellTiter-Glo luminescence assay; format: functional, cell-based
MDA-MB-231 [8] = test: Cytotoxicity against ER negative human MDA-MB-231 cells treated every 2 days for 4 days measured after 7 days by CellTiter-Glo luminescence assay; format: functional, cell-based
MCF-10A [9] = test: Cytotoxicity against ER negative human MCF10A cells treated every 2 days for 4 days measured post last dose by CellTiter-Glo luminescence assay; format: functional, cell-based
MCF-10A [10] = test: Cytotoxicity against ER negative human MCF10A cells treated every 2 days for 4 days measured after 7 days by CellTiter-Glo luminescence assay; format: functional, cell-based
[11] = target: Histone deacetylase 3 (Homo sapiens) (UniProt O15379); test: Inhibition of HDAC3 in human MCF7 cells assessed as increase in acetylated histone H4 expression at 0.1 to 9 uM after 8 hrs by Western blot analysis; format: cell-based
Histone deacetylase 3 (Homo sapiens), sequence (O15379 whole entry): as the sequence (O15379 whole entry, the tested form may be a part) above

[12] = target: T3, Protein deacetylase HDAC6 (Homo sapiens) (UniProt Q9UBN7); test: Inhibition of HDAC6 in human MCF7 cells assessed as increase in acetylated alpha-tubulin expression at 0.1 to 9 uM after 8 hrs by Western blot analysis; format: cell-based
T3 sequence (whole entry): T2 sequence (Q9UBN7 whole entry)

[13] = target: T4, Histone deacetylase 6/3 (Homo sapiens) (UniProt O15379+Q9UBN7); test: Inhibition of HDAC6/HDAC3 in human MCF7 cells assessed as induction of SREBF1 mRNA expression at 5 uM after 24 hrs by QIAzol reagent based RT-qPCR analysis; format: cell-based
T4 sequence (O15379 whole entry, looked up, one chain of several): as the sequence (O15379 whole entry, the tested form may be a part) above

[14] = target: T4, Histone deacetylase 6/3 (Homo sapiens); test: Inhibition of HDAC6/HDAC3 in human MCF7 cells assessed as induction of CTGF mRNA expression at 5 uM after 24 hrs by QIAzol reagent based RT-qPCR analysis; format: cell-based
[15] = target: T4, Histone deacetylase 6/3 (Homo sapiens); test: Inhibition of HDAC6/HDAC3 in human MCF7 cells assessed as induction of CDKN1A mRNA expression at 5 uM after 24 hrs by QIAzol reagent based RT-qPCR analysis; format: cell-based
[16] = target: T5, Estrogen receptor (Homo sapiens) (UniProt P03372); test: Antagonist activity at recombinant human ERalpha expressed in HEK293 cells assessed as inhibition of estradiol-induced YFP-fused SRC1 coactivator recruitment at higher concentration measured after 1 hr in presence of Coelenterazine H by BRET assay; format: cell-based
T5 sequence (whole entry): T1 sequence (P03372 whole entry)

Row | SMILES | IC50 (Estrogen receptor [1]) [nM] | Activity (Estrogen receptor [2]) | IC50 [3] [nM] | IC50 [4] [nM] | IC50 (MCF7 [5]) [nM] | IC50 (MCF7 [6]) [nM] | IC50 (MDA-MB-231 [7]) [nM] | IC50 (MDA-MB-231 [8]) [nM] | IC50 (MCF-10A [9]) [nM] | IC50 (MCF-10A [10]) [nM] | inhibition [11] | inhibition [12] | inhibition [13] | inhibition [14] | inhibition [15] | inhibition [16]
1 | CC/C(=C(\c1ccc(O)cc1)c1ccc(OCCN(C)C)cc1)c1ccc(OCCCCC(=O)NO)cc1 | 800 | Not Active | 1780 | 2100 | 2900 | 1200 |  |  |  |  |  |  |  |  |  | 
2 | CCC(=C(c1ccc(O)cc1)c1ccc(OCCN(C)C)cc1)c1ccccc1 |  |  |  |  | 3900 | 3300 | 3500 | 2500 | 4000 | 4000 | inactive | inactive | inactive | inactive | inactive | 
3 | CC/C(=C(\c1ccc(O)cc1)c1ccc(OCCN(C)C)cc1)c1ccc(CCCCC(=O)NO)cc1 | 820 | Not Active | 300 | 734 | 1300 | 790 | 1270 | 1100 | 2170 | 1830 |  |  | Active | Active | Active | 
4 | CC/C(=C(\c1ccc(O)cc1)c1ccc(OCCN(C)C)cc1)c1ccc(C(=O)NO)cc1 | 1120 | Not Active | 71900 |  |  |  |  |  |  |  |  |  |  |  |  | 
5 | CC/C(=C(\c1ccc(O)cc1)c1ccc(OCCN(C)C)cc1)c1ccc(CCC(=O)NO)cc1 | 1940 | Not Active | 484 | 2010 | 3600 | 1800 |  |  |  |  |  |  |  |  |  | 
6 | CC/C(=C(\c1ccc(O)cc1)c1ccc(OCCN(C)C)cc1)c1ccc(/C=C/C(=O)NO)cc1 |  | Not Active | 519 | 6720 | 4800 | 2700 |  |  |  |  |  |  |  |  |  | Active
